Experimental data reported in patent US20250255821A1, “SOLID DISPERSIONS COMPRISING A SGC STIMULATOR” (Cyclerion Therapeutics, Inc., priority 2015, published 2025).

Assay: Solubility of Compound I in aqueous media
Type: physicochemical
Details: pH independent

## OC(CNc1nc(-c2cc(-c3ccon3)n(Cc3ccccc3F)n2)ncc1F)(C(F)(F)F)C(F)(F)F [Compound I, 1,1,1,3,3,3-hexafluoro-2-(((5-fluoro-2-(1-(2-fluorobenzyl)-5-(isoxazol-3-yl)-1H-pyrazol-3-yl)pyrimidin-4-yl)amino)methyl)propan-2-ol]
  Solubility in aqueous media: low solubility
